EP1044978A2, “1-N-alkyl-5'-[(N'-(un)substituted)amido]spiroindolinonaphthoxazines, their preparation, compositions and (co)polymer matrices containing them” (Corning S.A., priority 1999, dated 2000)

Assay: Photochromic properties of lens samples (2 mm, compound in matrix I or II) exposed to UV radiation from a xenon lamp
Assay type: physicochemical
Settings: lens sample
Description: The matrix used in accordance with the present invention may be one of two types :
A homopolymer of the monomer DIACRYL 121 (D121 : tetraethoxylated Bisphenol A dimethylmethacrylate), marketed by Akzo Nobel; or
A copolymer comprised of a 50/50 mixture by weight of D121 (as above) and polyethylene glycol dimethacrylate (Molecular weight = 400) (PEGDMA 400).
10^-5 moles of at least one compound of the invention, together with 0.2% by weight of AMBN (2,2'-azobis(2-methylbutyronitrile)) provided by Akzo, are added to 10 g of formulations able to generate cross-linked matrix I or II. The formulations thus prepared are then poured into a lens mould of 2 mm thickness and then cured by heating at 60°C for 6 hours, followed by heating at 80°C for 2 hours to give a lens sample.
The photochromic properties of the lens samples thus obtained were then evaluated as follows :
Said lens sample, containing said photochromic compounds in its mass, is exposed to a UV radiation (source: xenon lamp).
Bleu D: 1,3-dihydro-1,3,3,5,6-pentamethylspiro[2H-indole-2'3'-[3H]-naphth-[2,1-b][1,4]oxazine] supplied by Great Lakes. T0 : the transmission before exposure to UV TD15 : the transmission after 15 minutes' exposure to UV OID : optical induced density (D∞-D0) [D∞ is the density after exposure, D0 the density before exposure] t1/2 : time of half-darkness which characterises the kinetics of the return to the initial state when at the equilibrium the exposure is cut off. λmax : the maximum absorption in the visible spectrum after UV irradiation.

[1] = Matrix I (homopolymer of DIACRYL 121)
[2] = Matrix II (50/50 D121 / PEGDMA 400 copolymer)

Molecule	OID (optical induced density, D∞-D0) [1]	T0 (the transmission before exposure to UV) [1] [%]	TD15 (the transmission after 15 minutes' exposure to UV) [1] [%]	λmax (the maximum absorption in the visible spectrum after UV irradiation) [1] [nm]	OID (optical induced density, D∞-D0) [2]	T0 (the transmission before exposure to UV) [2] [%]	TD15 (the transmission after 15 minutes' exposure to UV) [2] [%]	λmax (the maximum absorption in the visible spectrum after UV irradiation) [2] [nm]
1,3-dihydro-1,3,3,4(5),5(6)-pentamethyl-5'-piperidinocarbonyl-spiro[2H]-indole-2,3'-[3H]naphth[2,1-b][1,4]oxazine [Example 5]	0.905	77.6	9.7	626	1.067	80.7	6.9	622
CN1c2ccccc2C(C)(C)C12C=Nc1c(c(C(=O)N3CCOCC3)cc3ccccc13)O2 (stereo not shown) [Example 1, 1,3-dihydro-1,3,3-trimethyl-5'-morpholinocarbonylspiro[2H-indole-2,3'-[3H]-naphtho[2,1-b][1,4]oxazine]]					0.324	88.9	42.2	620
CN1c2ccccc2C(C)(C)C12C=Nc1c(c(C(=O)N3CCCCC3)cc3ccccc13)O2 (stereo not shown) [Example 2, 1,3-dihydro-1,3,3-trimethyl-5'-piperidinocarbonylspiro[2H-indole-2,3'-[3H]-naphtho[2,1-b][1,4]oxazine]]	0.152	89.0	62.6	618				
Cc1cc2c(cc1C)C(C)(C)C1(C=Nc3c(ccc4ccccc34)O1)N2C (stereo not shown) [Control II, 1,3-dihydro-1,3,3,5,6-pentamethylspiro[2H-indole-2'3'-[3H]-naphth-[2,1-b][1,4]oxazine], reference compound]	0.280	90.5	47.5	616	0.357	90.5	39.8	616
CN1c2ccccc2C(C)(C)C12C=Nc1c(c(C(=O)N3CCc4ccccc43)cc3ccccc13)O2 (stereo not shown) [Example 4, 1,3-dihydro-1,3,3-trimethyl-5'-indolinocarbonylspiro[2H-indole-2,3'-[3H]-naphtho[2,1-b][1,4]oxazine]]	0.339	86.9	39.8	622	0.553	85.4	23.9	622
CC(C)CN1c2ccccc2C(C)(C)C12C=Nc1c(c(C(=O)N3CCCCC3)cc3ccccc13)O2 (stereo not shown) [Example 7, 1,3-dihydro-1-(2'-methylpropyl)-3,3-dimethyl-5'-piperidinocarbonylspiro[2H-indole-2,3'-[3H]-naphtho[2,1-b] [1,4]oxazine]]					0.437	86.9	31.8	622
COc1ccc2c(c1)C(C)(C)C1(C=Nc3c(c(C(=O)N4CCCCC4)cc4ccccc34)O1)N2C (stereo not shown) [Example 6, 1,3-dihydro-5-methoxy-1,3,3-trimethyl-5'-piperidinocarbonylspiro[2H]-indole-2,3'-[3H]naphth[2,1-b][1,4]oxazine]					0.858	81.9	11.3	634
Cc1ccc(NC(=O)c2cc3ccccc3c3c2OC2(C=N3)N(C)c3ccccc3C2(C)C)cc1 (stereo not shown) [Example 3, 1,3-dihydro-1,3,3-trimethyl-5'-p-(tolylcarbamoyl)spiro[2H-indole-2,3'-[3H]-naphtho[2,1-b][1,4]oxazine]]	0.707	75.5	14.8	634				
CN1c2ccccc2C(C)(C)C12C=Nc1c(ccc3ccccc13)O2 (stereo not shown) [Control I, 1,3-dihydro-1,3,3-trimethylspiro[2H-indole-2,3'-[3H]-naphth[2,1-b][1,4]oxazine], reference compound]	0.142	90.9	65.6	607	0.140	90.5	65.5	610
